Several values for one entry are separate records, joined by “and”; a condition that tells them apart may be missing. Equal values may be shown once.
Assays:
Hrh3 protein = Hrh3 protein (Rattus norvegicus, UniProt Q5PPG3)
Histamine H3 receptor = Histamine H3 receptor (Homo sapiens, UniProt Q9Y5N1)
Chain of Histamine H3 receptor (Q9Y5N1 whole entry): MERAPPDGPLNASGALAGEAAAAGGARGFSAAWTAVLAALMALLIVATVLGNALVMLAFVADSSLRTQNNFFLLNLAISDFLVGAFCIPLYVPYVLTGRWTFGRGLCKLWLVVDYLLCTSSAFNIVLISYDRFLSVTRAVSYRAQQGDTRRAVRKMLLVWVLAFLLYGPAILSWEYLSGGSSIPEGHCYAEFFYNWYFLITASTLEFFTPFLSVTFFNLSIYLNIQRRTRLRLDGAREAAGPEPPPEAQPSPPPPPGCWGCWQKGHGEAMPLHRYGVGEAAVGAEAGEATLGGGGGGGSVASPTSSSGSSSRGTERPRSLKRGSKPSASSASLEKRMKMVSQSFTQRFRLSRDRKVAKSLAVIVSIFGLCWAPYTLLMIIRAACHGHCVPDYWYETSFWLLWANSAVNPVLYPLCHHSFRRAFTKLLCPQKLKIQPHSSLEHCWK

Chain of Hrh3 protein (Q5PPG3 whole entry): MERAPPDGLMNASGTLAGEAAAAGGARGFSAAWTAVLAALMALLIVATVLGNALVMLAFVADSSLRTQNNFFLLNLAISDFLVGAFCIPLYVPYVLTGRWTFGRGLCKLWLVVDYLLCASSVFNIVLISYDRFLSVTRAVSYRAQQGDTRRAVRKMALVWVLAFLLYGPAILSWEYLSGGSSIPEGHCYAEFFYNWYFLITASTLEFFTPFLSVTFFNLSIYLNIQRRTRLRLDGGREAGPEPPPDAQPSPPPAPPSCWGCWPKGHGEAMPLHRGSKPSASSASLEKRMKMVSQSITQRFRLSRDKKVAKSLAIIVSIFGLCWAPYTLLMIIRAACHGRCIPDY

| Ki (Histamine H3 receptor) [nM] | SMILES | Ki (Hrh3 protein) |
| --- | --- | --- |
|  | CN1CCN(C2=c3ccccc3=Nc3ccc(Cl)cc3N2)CC1 [6-chloro-10-(4-methylpiperazin-1-yl)-2,9-diazatricyclo[9.4.0.0^{3,8}]pentadeca-1,3(8),4,6,10,12,14-heptaene] | 3000 nM and 1750 nM |
| 0.6 | N=C(N)SCCc1cnc[nH]1 [2-(3H-imidazol-4-yl)ethylsulfanylmethanimidamide] | 0.2 nM |
| 1.6 | c1nc(CC2CCNCC2)c[nH]1 [4-(1H-imidazol-4-ylmethyl)piperidine] | 0.5 nM and 1.4 nM |
|  | NCCc1c[nH]cn1 [[3H]histamine] | 12 nM and 13.2 nM |
|  | S=C(NC1CCCCC1)N1CCC(c2cnc[nH]2)CC1 | 10.2 nM and 4.2 nM |

| SMILES | Ki (Histamine H3 receptor) [nM] | Ki (Hrh3 protein) |
| --- | --- | --- |
| CNCCc1c[nH]cn1 [N(alpha)-Methylhistamine] | 2.4 | 1.2 nM and 1.5 nM |

From BindingDB's records for PubMed 10869375 (R. W. Johnson Pharmaceutical Research Institute, 2000)
